Experimental findings from paper PMC11358882, “Neuroprotective Effects of Phenolic Constituents from Drynariae Rhizoma” (Pharmaceuticals, 2024) are described below.

Holding throughout (assay type): biochemical
One test concerns the target T1, BACE1 (Homo sapiens, UniProt P56817).
T1 construct: purchased PanVera Corporation, Madison, WI, USA P2985
The test can be described thus: BACE1 (β-secretase) FRET inhibitory assay. The conditions noted are these: isolated compounds; mean ± SD, n = 3; read-out: IC50 BACE1. The method, then:
The BACE1 inhibition assay was conducted using the BACE1 (β-secretase) FRET Assay Kit, Red Protocol, part number P2985 (PanVera® Corporation, Madison, WI, USA), following the manufacturer’s recommended protocol with minor modifications. The assay mixture consisted of 10 μL of BACE1 (1.0 U/mL), 10 μL of substrate (750 nM Rh-[…]-Quencher in 50 mM ammonium bicarbonate), the assay buffer (50 mM sodium acetate, pH 4.5), and 10 μL of the test samples. […] The reaction mixture was incubated for 60 min at room temperature in darkness. Before measurement, a stop solution (2.5 M sodium acetate) was added to halt the reaction. BACE1 enzyme activity was assessed by monitoring the proteolysis of two fluorophores (Rh-[…]-Quencher), forming the fluorescent donor (Rh-EVNL) with increased fluorescence wavelengths at 530–545 nm (excitation) and 570–590 nm (emission), respectively. All reactions were recorded in black 96-well microplates and performed in triplicate. The percentage of inhibition (%) was calculated using the following formula: inhibition (%)=[1−(S60−S0)/(C60−C0)]×100 , where C60 represents the fluorescence of the control after incubation, C0 represents the initial fluorescence of the control, S60 represents the fluorescence of the tested sample after incubation, and S0 represents the initial fluorescence of the tested sample. The BACE1-inhibitory activities of each sample were quantified in terms of IC50, which was determined from the log–dose inhibition curve.

The target of the next test is T2, AChE from electric eel (Electrophorus electricus, UniProt O42275).
T2 construct: purchased Sigma-Aldrich Co., St. Louis, USA
The test can be described thus: biochemical. The conditions noted are these: isolated compounds; mean ± SD, n = 3; ND = no detection using test concentration; read-out: IC50 AChE. The method, then: (§1) The AChE- and BChE-inhibitory, MTT, and Th T assays were analyzed using a UV–visible (VIS) spectrophotometer (Biotek, EPOCH2, Winooski, VT, USA), ensuring accurate measurements. For BACE1- and MAO-B-inhibitory assays, a multimode microplate reader (SpectraMax M3, Molecular Devices, San Jose, CA, USA) was employed, providing precise readings. Analytical-grade DMSO from DEAJUNG Chemical, Korea, served as a solvent in the bioassays. Reagents and solvents, including AChE from electric eel, acetylthiocholine iodide (ATCh), BChE from equine serum, S-butyrylthiocholine iodide (BTCh), 5,5′-dithiobis [2-nitrobenzoic acid] […] Additionally, the BACE1-inhibitory assay utilized the BACE1 (β-secretase) FRET assay kit from PanVera® Corporation, Madison, USA, while the MAO-B-inhibitory assay employed the MAO-B Inhibitor Screening Kit (Fluorometric) ab284511 from Abcam plc Co., Cambridge, UK.
(§2) The inhibitory activities against cholinesterases (AChE and BChE) were evaluated using a spectrophotometric method previously developed by Ellman et al.. Specifically, ATCh and BTCh were used as substrates to measure the inhibitory effects on AChE and BChE, respectively. The assay mixture consisted of 140 μL of 0.1 M sodium phosphate buffer at pH 7.8, 20 μL of a 0.38 U/mL solution of either AChE or BChE, and 20 μL of the test sample solution. This mixture was thoroughly mixed and then incubated at room temperature for 15 min. […] Reactions were initiated by adding 10 μL of 0.5 mM DTNB and 10 μL of either 0.6 mM ATCh or BTCh. ChE-inhibitory activity was monitored by measuring the formation of the yellow 5-thio-2-nitrobenzoate anion at 412 nm over 15 min (Epoch, BioTek, Winooski, VT, USA), resulting from the reaction of DTNB and thiocholine released from ATCh or BTCh. All reactions were conducted in 96-well microplates and performed in triplicate. The percentage of inhibition (%) was determined using the following formula: inhibition (%)={(Ac−As)/Ac}×100 , where Ac represents the enzyme activity in the absence of the test sample, and As represents the enzyme activity in the presence of the test sample. The ChE-inhibitory activities of each sample were quantified in terms of IC50, which was calculated from the log–dose inhibition curve.

The next test deals with T3, BChE from equine serum (Equus caballus, UniProt P81908).
T3 construct: BChE from equine serum; purchased Sigma-Aldrich Co., St. Louis, USA; host or cells: equine serum
As to the kind of experiment: biochemical. The conditions noted are these: isolated compounds; mean ± SD, n = 3; ND = no detection using test concentration; read-out: IC50 BChE. The method, then: as §1, §2

Another test addresses T4, MAO-B (Homo sapiens, UniProt P27338).
T4 construct: purchased Abcam plc, Cambridge, UK ab284511
T4 sequence (P27338 1-520): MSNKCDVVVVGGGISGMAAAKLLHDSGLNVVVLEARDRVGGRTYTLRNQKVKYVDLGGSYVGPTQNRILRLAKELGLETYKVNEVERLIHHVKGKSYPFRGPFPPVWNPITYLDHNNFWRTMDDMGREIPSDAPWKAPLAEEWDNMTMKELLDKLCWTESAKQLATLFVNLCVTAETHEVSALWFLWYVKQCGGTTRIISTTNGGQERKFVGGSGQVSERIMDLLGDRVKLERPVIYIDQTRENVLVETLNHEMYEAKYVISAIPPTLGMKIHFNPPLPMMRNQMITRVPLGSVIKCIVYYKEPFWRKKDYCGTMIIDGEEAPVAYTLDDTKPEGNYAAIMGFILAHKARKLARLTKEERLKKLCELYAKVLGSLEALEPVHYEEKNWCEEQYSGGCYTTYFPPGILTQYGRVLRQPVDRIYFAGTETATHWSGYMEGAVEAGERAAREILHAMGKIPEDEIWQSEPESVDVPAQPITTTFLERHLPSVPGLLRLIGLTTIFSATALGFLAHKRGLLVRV
The test can be described thus: MAO-B inhibitor screening kit (fluorometric) assay. The conditions noted are these: isolated compounds; mean ± SD, n = 3; ND = no detection using test concentration. The method, then:
The MAO-B-inhibition assay was conducted using the MAO-B Inhibitor Screening Kit (Fluorometric) ab284511 (Abcam plc, Cambridge, UK), following the manufacturer’s recommended protocol with minor modifications. The enzyme solution (50 µL) and the test sample (10 µL) were adjusted as per the manual instructions. […] After mixing, samples and enzymes were incubated at 25 °C for 10 min. Subsequently, 40 μL of MAO-B substrate (comprising MAO-B assay buffer, MAO substrate, developer, and OxiRed probe) was added, followed by further incubation at 25 °C for 5 min. Fluorescence was measured using enzyme-linked immunosorbent assay within 40 min with dynamic fluorescence (Ex/Em = 535/587 nm). All reactions were recorded in black 96-well microplates and performed in triplicate. The slope for all samples, including the enzyme control (EC), was calculated by dividing the net ΔRFU (RFU2–RFU1) values by the time Δt (T2 − T1). The % relative inhibition was computed as follows: % relative inhibition=(slope of EC−slope of S)/slope of EC×100 . The MAO-B-inhibitory activities of each sample were quantified in terms of IC50, as determined from the log–dose inhibition curve.

T1 sequence (P56817 46-501): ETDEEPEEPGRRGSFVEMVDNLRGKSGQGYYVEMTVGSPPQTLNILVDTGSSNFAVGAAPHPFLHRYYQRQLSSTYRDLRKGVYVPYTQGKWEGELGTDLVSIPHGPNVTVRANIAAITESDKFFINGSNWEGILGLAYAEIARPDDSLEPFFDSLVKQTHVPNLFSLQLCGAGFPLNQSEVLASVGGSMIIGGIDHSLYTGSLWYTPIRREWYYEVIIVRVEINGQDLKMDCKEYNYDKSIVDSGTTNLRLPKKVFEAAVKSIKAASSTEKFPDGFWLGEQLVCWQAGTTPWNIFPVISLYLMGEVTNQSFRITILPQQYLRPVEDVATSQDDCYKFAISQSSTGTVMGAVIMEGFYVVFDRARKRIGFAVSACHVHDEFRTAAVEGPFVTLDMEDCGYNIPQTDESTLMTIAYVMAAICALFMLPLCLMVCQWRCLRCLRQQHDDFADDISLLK
T2 sequence (O42275 24-633): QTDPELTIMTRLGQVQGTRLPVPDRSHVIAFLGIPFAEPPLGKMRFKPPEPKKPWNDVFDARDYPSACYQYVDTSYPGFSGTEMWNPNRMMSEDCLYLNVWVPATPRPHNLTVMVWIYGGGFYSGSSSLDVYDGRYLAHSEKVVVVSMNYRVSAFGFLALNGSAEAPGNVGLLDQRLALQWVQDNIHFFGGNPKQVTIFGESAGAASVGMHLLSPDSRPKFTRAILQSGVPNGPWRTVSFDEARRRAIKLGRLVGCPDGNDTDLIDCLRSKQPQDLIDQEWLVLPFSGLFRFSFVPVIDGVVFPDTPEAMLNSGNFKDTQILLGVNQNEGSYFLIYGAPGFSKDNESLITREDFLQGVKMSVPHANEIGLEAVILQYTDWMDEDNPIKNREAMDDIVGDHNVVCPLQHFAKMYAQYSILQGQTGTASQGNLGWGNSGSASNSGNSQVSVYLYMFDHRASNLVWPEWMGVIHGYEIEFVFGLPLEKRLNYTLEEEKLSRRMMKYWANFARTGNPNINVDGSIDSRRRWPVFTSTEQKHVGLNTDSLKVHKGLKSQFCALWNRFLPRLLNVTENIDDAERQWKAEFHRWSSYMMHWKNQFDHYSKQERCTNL
T3 sequence (P81908 whole entry): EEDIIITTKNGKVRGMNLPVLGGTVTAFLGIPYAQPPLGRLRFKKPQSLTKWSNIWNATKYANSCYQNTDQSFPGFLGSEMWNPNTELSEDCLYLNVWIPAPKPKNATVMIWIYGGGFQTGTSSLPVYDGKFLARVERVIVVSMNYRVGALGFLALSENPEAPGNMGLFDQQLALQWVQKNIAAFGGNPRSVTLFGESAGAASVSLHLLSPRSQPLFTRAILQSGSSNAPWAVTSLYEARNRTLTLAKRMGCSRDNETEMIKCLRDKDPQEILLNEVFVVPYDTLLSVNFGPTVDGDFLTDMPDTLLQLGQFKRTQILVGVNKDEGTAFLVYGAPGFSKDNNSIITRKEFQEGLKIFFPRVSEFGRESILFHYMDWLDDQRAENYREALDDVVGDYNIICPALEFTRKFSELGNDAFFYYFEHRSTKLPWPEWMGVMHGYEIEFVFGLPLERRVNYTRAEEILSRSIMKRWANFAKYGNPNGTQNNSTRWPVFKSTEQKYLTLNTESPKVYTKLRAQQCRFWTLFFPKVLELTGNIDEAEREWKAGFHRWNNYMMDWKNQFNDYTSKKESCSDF

By IC50 is commonly meant the concentration that gives 50% inhibition. `C[C@@H]1O[C@@H](Oc2c(-c3ccc(O)cc3)oc3cc(O[C@@H]4O[C@H](CO)[C@@H](O)[C@H](O)[C@H]4O)cc(O)c3c2=O)[C@H](O)[C@H](O)[C@H]1O` [Compound 6, kaempferol 3-O-rhamnoside 7-O-glucoside]: the IC50 came out at 83.27 ± 0.33 µM at BACE1, 353.43 ± 0.32 µM at AChE from electric eel, 32.6 ± 5.66 µM on BChE from equine serum and 109.19 ± 0.08 µM against MAO-B.
`O=c1c(O[C@@H]2O[C@H](CO)[C@@H](O)[C@H](O)[C@H]2O)c(-c2ccc(O)cc2)oc2cc(O[C@@H]3O[C@@H](CO)[C@H](O)[C@H]3O)cc(O)c12` [Compound 7, kaempferol 3-o-b-d-glucopyranoside-7-o-a-L-arabinofuranoside]: the IC50 on BACE1 turned out to be 39.11 ± 0.17 µM; at AChE from electric eel, 47.33 ± 0.22 µM; on BChE from equine serum, 28.8 ± 0.31 µM; against MAO-B, 65.8 ± 3.72 µM.
